# ChEMBL document CHEMBL5728073, “Compounds that inhibit Mcl-1 protein” (2020)
# Assay: Time-Resolved Fluorescence Resonance Energy Transfer (TR-FRET) Assay: The inhibition of the Mcl-1/Bim interaction was measured using a time-resolved fluorescence resonance energy transfer (TR-FRET) assay. The recombinant human Mcl-1 (C-terminally 6ÃHis tagged Mcl-1 containing residues 171-327) was generated at Amgen Inc (Thousand Oaks, Calif.). A biotinylated peptide derived from human Bim …
# Description: Time-Resolved Fluorescence Resonance Energy Transfer (TR-FRET) Assay: The inhibition of the Mcl-1/Bim interaction was measured using a time-resolved fluorescence resonance energy transfer (TR-FRET) assay. […] A biotinylated peptide derived from human Bim (residues 51-76) was purchased from CPC Scientific (San Jose, Calif.). The TR-FRET assay was conducted in a 384-well white OptiPlate (PerkinElmer, Waltham, Mass.) in a total volume of 40 uL. […] The reaction plates were further incubated overnight and then were read on an EnvisionÂ multimode reader (PerkinElmer). […] The IC50 values of test compounds were determined from duplicate data by analyzing competition curves using a four-parameter sigmoidal model in GraphPad Prism.
row,IC50,SMILES
1,0.494 nM,CO[C@@]1(CN2CCN3CCC(F)(F)C[C@@H]3C2)/C=C\C[C@H](C)[C@@H](C)S(=O)(=O)NC(=O)c2ccc3c(c2)N(C[C@@H]2CC[C@H]21)C[C@@]1(CCCc2cc(Cl)ccc21)CO3
2,0.225 nM,CCCCN1CCN(C[C@]2(OC)/C=C/C[C@H](C)[C@@H](C)S(=O)(=O)NC(=O)c3ccc4c(c3)N(C[C@@H]3CC[C@H]32)C[C@@]2(CCCc3cc(Cl)ccc32)CO4)CC1
3,0.097 nM,C[C@@H]1[C@@H](C)C/C=C\[C@](O)(CN2CCN3CCCC[C@@H]3C2)[C@@H]2CC[C@H]2CN2C[C@@]3(CCCc4cc(Cl)ccc43)COc3ccc(cc32)C(=O)NS1(=O)=O
